Experimental data reported in US20210169993A1, “TREATMENT OF A SUBTYPE OF ASD” (STALICLA SA, priority 2017, published 2021).

system: ASD phenotype 1 lymphoblastoid cell lines; test: NADH production in Phenotype Mammalian MicroArrays (PM-M, Biolog), ASD phenotype 1 cells; assay type: cell-based, human; settings: FIG. 1 (AUC) and Table 1 (endpoint absorbance)
Experimental: From all subjects, blood samples were collected and lymphoblastoid cell lines generated. Briefly, tubes containing anticoagulant citrate dextrose (ACD) were used to collect blood samples via venipuncture, in order to ensure that the blood cells remained metabolically active. The tubes were kept at room temperature and processed within 24 hours.
Cell lines were obtained by immortalization of lymphocytes from blood samples using Epstein-Barr virus.
Energy production of cells was measured using commercially available Phenotype Mammalian MicroArrays (PM-Ms, Biolog, Hayward, Calif., USA).
The compound in each well was designed to be used by the cells, either as the sole energy source or as the metabolic effector influencing the utilization of an energy source (α-D-glucose) added in the cell suspension. […] Before plating, cell viability and number were assessed utilizing a BioRad cell counter and a trypan blue dye. The concentration of live cells required for plating was 4×10^5 cells/mL, corresponding to 20,000 cells per well in a volume of 50 μL. […] Cells were incubated for 48 h at 37° C. in 5% CO2, using the modified Biolog IF-M1 medium.
The Biolog IF-M1 medium was modified for plates PM-M1 to M4 by adding the following to 100 mL of Biolog IF-M1: 1.1 mL of 100× penicillin/streptomycin solution, 0.16 mL of 200 mM glutamine (final concentration 0.3 mM), and 5.3 mL of Fetal Bovine Serum (FBS, final concentration 5%). For plates PM-M5 to M8, 5.5 mM α-D-glucose will be added in place of FBS.
During the 48-hour incubation, the only energy source the cells had was the chemical in the well. After this first incubation, Biolog Redox Dye Mix MB was added (10 μL/well) and the plates were incubated under the same conditions for an additional 24 hours. As the cells metabolized the energy source, tetrazolium dye in the media was reduced, producing a purple color according to the amount of NADH generated.
For the last 24 hours of the experiment, the plates were incubated in the Omnilog system, which collects optical density readings every 15 minutes, generating 96 data-points for each well. The system also elaborated the kinetic curve for the metabolic reaction in each well and extrapolated parameters such as slope, highest point, endpoint, area under the curve (AUC), and lag.
At the end of the 24-hour incubation, the plates were analyzed utilizing a microplate reader with readings at 590 and 750 nm. The first value (A590) indicated the highest absorbance peak of the redox dye and the second value (A750) gave a measure of the background noise. The relative absorbance (A590-750) was calculated per well.

Row | Substance | production of NADH in ASD phenotype 1 cells compared to TDs and non-phenotype 1 cells
1 | FGF-1(aFGF): growth factor that selectively targets PI3K-Akt-mTOR by binding the receptor tyrosine kinase | significantly reduced
2 | IGF-I: insulin-like growth factor 1 | no significant differences
3 | IL-1beta: Th1 cytokine | significantly lower
4 | IL-6: Th1 cytokine | significantly lower
5 | PDGF-AB: platelet-derived growth factor AB | no significant differences
6 | hGH (Somatotropin): growth factor that selectively targets PI3K-Akt-mTOR by binding the receptor tyrosine kinase | significantly reduced
